Legend:
Assay type in all cases: functional
Rattus norvegicus [1] = assay: Tested for edema suppression rate with respect to control value in adjuvant arthritis rat at a dose of 50 mg/Kg; Range = 31-40%
Rattus norvegicus [2] = assay: Tested for edema suppression rate with respect to control value in adjuvant arthritis rat at a dose of 50 mg/Kg; Range = >50%
Rattus norvegicus [3] = assay: Tested for edema suppression rate with respect to control value in adjuvant arthritis rat; Range = 0-20%
Rattus norvegicus [4] = assay: Tested for edema suppression rate with respect to control value in adjuvant arthritis rat at a dose of 10 mg/Kg; Range = 31-40%
Rattus norvegicus [5] = assay: Tested for edema suppression rate with respect to control value in adjuvant arthritis rat at a dose of 10 mg/Kg; Range = 21-30%
Rattus norvegicus [6] = assay: Tested for edema suppression rate with respect to control value in adjuvant arthritis rat at a dose of 10 mg/Kg; Range = 41-50%
Rattus norvegicus [7] = assay: Tested for edema suppression rate with respect to control value in adjuvant arthritis rat at a dose of 50 mg/Kg; Range = 21-30%

**Q.** `CNc1ccc([N+](=O)[O-])cc1C(=O)O` was tested. Which inhibition in vivo at 50 mg/kg (Rattus norvegicus [1]) did it give?
**A.** 40%

**Q.** Which inhibition in vivo at 50 mg/kg (Rattus norvegicus [2]) does the source give for `O=C(O)c1cc([N+](=O)[O-])cc2c1NCCC2` here?
**A.** > 50%

**Q.** With `O=C(O)c1cc([N+](=O)[O-])cc2c1NCC2` as the compound, how does the Inhibition (Rattus norvegicus [3]) read?
**A.** 20%

**Q.** With `O=C(O)c1cc2c(c(C(=O)O)c1)NCCC2` as the compound, how does the inhibition in vivo at 10 mg/kg (Rattus norvegicus [4]) read?
**A.** 40%

**Q.** `O=C(O)c1cccc2c1NC(c1ccccc1)CO2` (stereo unspecified) was tested. Which inhibition in vivo at 10 mg/kg (Rattus norvegicus [4]) did it give?
**A.** 40%

**Q.** With `O=C(O)c1cc2c(c(C(=O)O)c1)NCCS2` as the compound, how does the Inhibition (Rattus norvegicus [3]) read?
**A.** 20%

**Q.** With `O=C(O)c1cc([N+](=O)[O-])ccc1NCc1ccccc1` as the compound, how does the Inhibition (Rattus norvegicus [3]) read?
**A.** 20%

**Q.** With `Nc1ccc(Cl)cc1C(=O)O` as the compound, how does the Inhibition (Rattus norvegicus [3]) read?
**A.** 20%

**Q.** How did the inhibition in vivo at 10 mg/kg (Rattus norvegicus [5]) turn out when `O=C(O)c1cc([N+](=O)[O-])cc2c1NCCCC2` was run?
**A.** 30%

**Q.** How did the inhibition in vivo at 50 mg/kg (Rattus norvegicus [1]) turn out when `CS(=O)(=O)Nc1cc2c(c(C(=O)O)c1)NCCCC2` was run?
**A.** 40%

**Q.** `O=C(O)Cc1cc2c(c(C(=O)O)c1)NCCC2` was tested. Which inhibition in vivo at 10 mg/kg (Rattus norvegicus [6]) did it give?
**A.** 50%

**Q.** `O=C(O)c1cc([N+](=O)[O-])cc2c1NC(c1ccccc1)CC2` (stereo unspecified) was tested. Which Inhibition (Rattus norvegicus [3]) did it give?
**A.** 20%

**Q.** `O=C(O)c1cc([N+](=O)[O-])cc2c1NCCO2` was tested. Which Inhibition (Rattus norvegicus [3]) did it give?
**A.** 20%

**Q.** For `O=C(O)c1cc(Br)c(Cl)c2c1NCCO2`, which inhibition in vivo at 50 mg/kg (Rattus norvegicus [7]) is on record?
**A.** 30%

**Q.** `O=C(O)c1cc(Cl)cc2c1NCCS2` was tested. Which Inhibition (Rattus norvegicus [3]) did it give?
**A.** 20%

**Q.** How did the inhibition in vivo at 10 mg/kg (Rattus norvegicus [5]) turn out when `Nc1ccc([N+](=O)[O-])cc1C(=O)O` was run?
**A.** 30%

Reference: ChEMBL document CHEMBL1130454, “Synthesis and antirheumatic activity of novel tetrahydroquinoline-8-carboxylic acid derivatives” (1997)
